Measurements published in PMC7083565, “In vitro metabolism, reaction phenotyping, enzyme kinetics, CYP inhibition and induction potential of ataluren” (Pharmacology Research & Perspectives, 2020).

Tests used:
[1] = target: T1, CYP1A2 (Homo sapiens, UniProt P05177); assay: CYP inhibition in pooled human liver microsomes: CYP1A2; format: in vitro ADME; conditions: CYP1A2, HLM, estimated, concentrations up to 400 μmol/L
T1 construct: tissue XenoTech LLC, Celsis-In Vitro Technologies, or Tissue Transformation Technologies; host or cells: pooled human liver microsomes
T1 sequence (P05177 1-516): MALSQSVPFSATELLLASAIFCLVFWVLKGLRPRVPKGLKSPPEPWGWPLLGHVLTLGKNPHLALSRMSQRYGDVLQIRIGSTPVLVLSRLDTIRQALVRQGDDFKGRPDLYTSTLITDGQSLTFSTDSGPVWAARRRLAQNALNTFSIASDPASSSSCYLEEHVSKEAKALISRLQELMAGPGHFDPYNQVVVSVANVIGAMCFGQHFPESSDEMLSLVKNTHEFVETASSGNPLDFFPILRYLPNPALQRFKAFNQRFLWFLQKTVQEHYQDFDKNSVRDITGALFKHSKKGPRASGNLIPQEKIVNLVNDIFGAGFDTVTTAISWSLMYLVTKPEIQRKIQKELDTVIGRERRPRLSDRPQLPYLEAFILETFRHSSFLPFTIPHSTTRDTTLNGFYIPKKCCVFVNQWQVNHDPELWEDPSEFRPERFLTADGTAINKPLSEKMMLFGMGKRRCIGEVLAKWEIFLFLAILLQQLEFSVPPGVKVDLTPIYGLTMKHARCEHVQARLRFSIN
Experimental: The final concentration of each probe substrate was near the experimentally determined Km value for the indicated enzyme. Ataluren or prototypical CYP inhibitors (positive controls) was incubated (n = 3) with probe substrates and HLM in 100 mmol/L phosphate buffer (pH 7.4) in a total volume of approximately 0.25 mL, and the reactions were initiated by the addition of 1 mmol/L NADPH at 37°C. The reactions were carried out using previously established conditions to ensure linearity with respect to protein concentration and incubation time (Table S1). Incubations were stopped with the addition of ice‐cold acetonitrile. Metabolite formation in incubations with test compound and control inhibitors was assessed with LC‐MS/MS methods for each of the reaction products as described in Table S2. […] After 7 minutes incubation at 37°C, the reaction was stopped by the addition of ice‐cold acetonitrile, followed by membrane plate filtration. The filtrates were used for LC‐MS/MS analysis. […] IC50 values were determined by nonlinear regression with GraphPad Prism 5 using the following four‐parameter sigmoidal‐logistic IC50 equation: Fit=background+range-background/[1+I/IC50^slope]
Where, I is the inhibitor concentration, and background was set to 0 and range to 100, as percent of control values are utilized. K i was determined by nonlinear regression with GraphPad Prism 5 using best fit model.

[2] = system: CYP2A6; assay: CYP induction in primary human hepatocytes: CYP2A6; format: in vitro ADME; conditions: Coumarin 7-hydroxylase, 48 hours, n=3
Experimental: Human hepatocytes isolated from three Caucasian males were transferred to 48‐well collagen‐coated plates at 0.14 × 10^6 cells/well in planting media for attachment. After attachment, planting media was replaced with sandwich media and the cells were incubated until clusters were established. […] The incubation solutions were aspirated and replaced with freshly prepared incubation solutions containing ataluren for an additional 24 hours. […] The incubation solutions were then aspirated and 150 µL of K‐H buffer containing CYP substrates were added. The hepatocytes were incubated for 30 minutes for CYP2C8 (10 µmol/L amodiaquine), 1 hour for CYP3A4 (125 µmol/L testosterone), and 4 hours for CYPs 1A2 (100 µmol/L phenacetin), 2A6 (100 µmol/L coumarin), 2B6 (150 µmol/L bupropion), 2C9 (50 µmol/L tolbutamide), 2C19 (100 µmol/L S‐mephenytoin), and 2E1 (300 µmol/L chlorzoxazone) activity assays. The reactions were stopped by the addition of 0.15 mL of ice‐cold methanol except that coumarin‐treated cells were incubated with β‐glucuronidase and aryl sulfatase for additional 1 hour to free 7‐hydroxycoumarin before the addition of 0.2 mL of ice‐cold methanol. Metabolite formation in incubations with test compounds and control inhibitors was assessed with validated LC‐MS/MS methods for each of the reaction products as described in Table S2. Enzymatic activity for each CYP was calculated using the absolute amount of metabolite formed (pmol) divided by hepatocytes in the incubation (million cells) and the incubation time (minute). The relative fold induction in enzymatic activity was calculated by comparing the rate of metabolite formation for treatment groups to that of the solvent control group (reported as vehicle control%) or positive control group (reported as positive control%).

Which results are given for `O=C(O)c1cccc(-c2noc(-c3ccccc3F)n2)c1` [ataluren, Ataluren]?
IC50 [1]: > 400 µM; Vehicle control %, Mean ([2]; ataluren 4 µM): 100%; Vehicle control %, Mean ([2]; ataluren 40 µM): 111%; Vehicle control %, Mean ([2]; ataluren 400 µM): 118%
